Assays:
SIRT1 = biological target: T1, SIRT1 (Homo sapiens, UniProt Q96EB6); experiment: SIRT1 Fluorescent Activity Assay/Drug Discovery Kit AK-555; assay type: biochemical; conditions: capsules stored under ambient conditions
T1 sequence (Q96EB6 1-747): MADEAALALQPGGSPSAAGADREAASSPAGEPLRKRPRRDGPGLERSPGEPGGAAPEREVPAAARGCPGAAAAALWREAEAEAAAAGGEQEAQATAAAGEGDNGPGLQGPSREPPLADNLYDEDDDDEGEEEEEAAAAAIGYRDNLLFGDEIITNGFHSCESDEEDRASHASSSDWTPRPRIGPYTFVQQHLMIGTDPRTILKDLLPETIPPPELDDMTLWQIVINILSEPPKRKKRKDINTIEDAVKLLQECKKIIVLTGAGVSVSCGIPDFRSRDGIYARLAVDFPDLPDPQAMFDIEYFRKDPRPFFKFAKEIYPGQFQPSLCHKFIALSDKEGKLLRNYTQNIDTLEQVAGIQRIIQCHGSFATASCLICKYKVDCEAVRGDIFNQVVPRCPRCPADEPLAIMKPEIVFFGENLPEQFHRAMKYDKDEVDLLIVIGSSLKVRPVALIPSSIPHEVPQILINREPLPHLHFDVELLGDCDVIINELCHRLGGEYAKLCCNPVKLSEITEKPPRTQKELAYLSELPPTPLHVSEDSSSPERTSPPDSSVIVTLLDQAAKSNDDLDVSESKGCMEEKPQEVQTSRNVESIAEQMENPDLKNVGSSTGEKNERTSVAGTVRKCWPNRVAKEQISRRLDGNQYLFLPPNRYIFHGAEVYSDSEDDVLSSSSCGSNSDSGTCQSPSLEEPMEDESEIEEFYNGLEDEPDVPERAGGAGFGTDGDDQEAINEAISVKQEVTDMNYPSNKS

breast cancer cells = conditions: cited from earlier work
cancer risk = conditions: 1100 IU, 4-year period, women in Nebraska; cited from earlier work
rhabdomyosarcoma cells = conditions: low dosage; cited from earlier work
injected tumors = conditions: mice with injected tumors; cited from earlier work
miR-20b = miR-20b quantification in I/R heart, Taqman real-time PCR; assay type: in vivo, rat; conditions: I/R alone: down regulation […]; FIG. 17C
From the text: Animals. […] Male Sprague-Dawley rats weighing between 250 and 300 g were fed ad libitum regular rat chow with free access to water until the start of the experimental procedure.

reactive oxygen species = experiment: Intracellular ROS by CM-H2DCFDA fluorescence in I/R heart; assay type: in vivo, rat; conditions: IR heart, FIG. 19
Method: The dye was injected intravenously, prior to induction of ischemia/reperfusion, and at the end of the experiments, the level of fluorescence was determined for the generation of ROS by measuring the fluorescent oxidation product CM-DCF in the cytosol, at an excitation wavelength of 480 nm and an emission wavelength of 520 nm.

O=c1c(O)c(-c2ccc(O)c(O)c2)oc2cc(O)cc(O)c12 [quercetin]
biological activity of encapsulated quercetin (ability to stimulate SIRT1 activity) (SIRT1): maintained biological activity

C=C1CC[C@H](O)C/C1=C/C=C1\CCC[C@]2(C)[C@@H]([C@H](C)CCCC(C)C)CC[C@@H]12 [vitamin D3, cholecalciferol]
decline of number of breast cancer cells (breast cancer cells; higher concentrations of vitamin D3): about 25%
decline of breast tumor cell numbers (breast cancer cells; low-dose vitamin D3): does not reduce
reduction in cancer risk (cancer risk): 60-77%

O=P(O)(O)O[C@H]1[C@H](OP(=O)(O)O)[C@@H](OP(=O)(O)O)[C@H](OP(=O)(O)O)[C@@H](OP(=O)(O)O)[C@H]1OP(=O)(O)O [IP6, (2,3,4,5,6-pentaphosphonooxycyclohexyl)dihydrogen phosphate]
suppression of growth of rhabdomyosarcoma cells (rhabdomyosarcoma cells): 50%
tumor size, times smaller than non-treated mice (injected tumors): 50 times

CC(C)=CCC/C(C)=C/CC/C(C)=C/CC[C@]1(C)CCc2cc(O)c(C)c(C)c2O1 [γ-tocotrienol]
miR-20b expression in pretreated I/R hearts (miR-20b): 9.4 fold
intracellular ROS concentration compared to control (reactive oxygen species): lowered

Source: US20140011889A1, “Resveratrol-Containing Compositions and Methods of Use for Cardiac-Related Diseases” (Resveratrol Partners, LLC, priority 2010, published 2014)
